Reference: patent US10597388B2, “Pyridazinone herbicides” (FMC CORPORATION, priority 2014, dated 2020)

Legend:
Assay type in all cases: in vivo
[1] = test system: ragweed (common ragweed, Ambrosia elatior); experiment: Test A greenhouse herbicide test, pre- and postemergence
Outline: (§1)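 Visual injury ratings, 0 (no effect) to 100 (complete control), versus untreated plants after roughly 10 d in a greenhouse. Compounds, formulated in a surfactant-containing non-phytotoxic solvent, were sprayed on loam–sand soil after sowing (pre) or on one- to two-leaf plants 2–10 cm tall (post).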

[2] = test system: pigweed (Amaranthus retroflexus); experiment: as above
Outline: as §1

[3] = test system: foxtail, giant (giant foxtail, Setaria faberii); experiment: as above
Outline: as §1

kochia (Kochia scoparia) = experiment: as above
Outline: as §1

[4] = test system: barnyardgrass (Echinochloa crus-galli); experiment: as above
Outline: as §1

[5] = test system: wheat (Triticum aestivum); experiment: as above; settings: Postemergence
Outline: as §1

[6] = test system: ryegrass, Italian (Italian ryegrass, Lolium multiflorum); experiment: as above
Outline: as §1

[7] = test system: ryegrass, Italian (Italian ryegrass, Lolium multiflorum); experiment: Test C greenhouse herbicide test, pre- and postemergence
Outline: (§2)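 Greenhouse pots; pre-em on seeded loam:sand blend, post-em on 2–18 cm plants (1–4 leaf) in sphagnum peat/vermiculite medium. Formulation: non-phytotoxic solvent + surfactant. Read-out: visual % control (0–100) vs controls at 13–15 d.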

corn (Zea mays) = experiment: as above
Outline: as §2

[8] = test system: galium (catchweed bedstraw, Galium aparine); experiment: Test A greenhouse herbicide test, postemergence
Outline: (§3)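 Seedlings in a loam soil and sand mix received formulated compound postemergence at the one- to two-leaf stage. Greenhouse holding lasts approximately 10 d, then injury is scored visually relative to untreated plants, 0 meaning no effect and 100 complete control.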

[9] = test system: blackgrass (Alopecurus myosuroides); experiment: Test A greenhouse herbicide test, postemergence
Outline: as §3

[10] = Postemergence, 125 g ai/ha, 0 to 100 scale where 0 is no effect and 100 is complete control
[11] = Postemergence, 500 g ai/ha, visual rating after approx. 10 d, 0 to 100 scale (0 no effect, 100 complete control)
[12] = Preemergence, 125 g ai/ha, 0 to 100 scale where 0 is no effect and 100 is complete control
[13] = Preemergence, 500 g ai/ha, 0 to 100 scale where 0 is no effect and 100 is complete control
[14] = 125 g ai/ha, 0 to 100 scale where 0 is no effect and 100 is complete control
[15] = 500 g ai/ha, visual rating after approx. 10 d, 0 to 100 scale (0 no effect, 100 complete control)
[16] = Postemergence, 31 g ai/ha, scale 0 to 100 (0 no effect, 100 complete control)
[17] = Postemergence, 62 g ai/ha, 0 to 100 scale (0 no effect, 100 complete control)
[18] = Postemergence, 250 g ai/ha, scale 0 to 100, 0 no effect, 100 complete control, 13 to 15 d
[19] = Preemergence, 31 g ai/ha, scale 0 to 100, 0 is no effect, 100 is complete control
[20] = Preemergence, 62 g ai/ha, scale 0 to 100, 0 is no effect, 100 is complete control
[21] = Preemergence, 125 g ai/ha, scale 0 to 100, 0 is no effect, 100 is complete control
[22] = Preemergence, 250 g ai/ha, scale 0 to 100 (0 no effect, 100 complete control)
[23] = postemergence, 125 g ai/ha, scale 0 to 100, 0 no effect, 100 complete control
[24] = Postemergence, 16 g ai/ha, scale 0 to 100 (0 no effect, 100 complete control)

SMILES: CCC(=O)Oc1c(C)nn(C)c(=O)c1-c1ccc(Br)c2ccccc12 [Compound 133]
- Plant response rating, Ragweed [1, 10]: 100
- Plant response rating, Ragweed [1, 11]: 100
- Ragweed plant response rating [1, 12]: 90
- Plant response rating, Ragweed [1, 13]: 100
- Plant response rating, Pigweed [2, 10]: 90
- Plant response rating, Pigweed [2, 11]: 100
- Pigweed plant response rating [2, 12]: 80
- Plant response rating, Pigweed [2, 13]: 100
- Plant response rating, Foxtail, Giant [3, 10]: 20
- Plant response rating, Foxtail, Giant [3, 11]: 90
- Foxtail, Giant plant response rating [3, 12]: 40
- Plant response rating, Foxtail, Giant [3, 13]: 70
- Plant response rating, Kochia (kochia (Kochia scoparia); [10]): 90
- Plant response rating, Kochia (kochia (Kochia scoparia); [11]): 100
- Kochia plant response rating (kochia (Kochia scoparia); [12]): 40
- Plant response rating, Kochia (kochia (Kochia scoparia); [13]): 100
- Plant response rating, Barnyardgrass [4, 10]: 20
- Plant response rating, Barnyardgrass [4, 11]: 90
- Barnyardgrass plant response rating [4, 12]: 20
- Plant response rating, Barnyardgrass [4, 13]: 50
- Plant response rating, Wheat [5, 14]: 20
- Plant response rating, Wheat [5, 15]: 30
- Plant response rating, Ryegrass, Italian [6, 10]: 100
- Plant response rating, Ryegrass, Italian [6, 11]: 100
- Ryegrass, Italian plant response rating [6, 12]: 100
- Plant response rating, Ryegrass, Italian [6, 13]: 100
- Plant response rating, Ryegrass, Italian [7, 16]: 5
- Ryegrass, Italian plant response rating [7, 17]: 10
- Plant response rating, Ryegrass, Italian [7, 18]: 5
- Plant response rating, Ryegrass, Italian [7, 19]: 90
- Plant response rating, Ryegrass, Italian [7, 20]: 95
- Plant response rating, Ryegrass, Italian [7, 21]: 100
- Ryegrass, Italian plant response rating [7, 22]: 100
- Ryegrass, Italian plant response rating [7, 23]: 35
- Plant response rating, Corn (corn (Zea mays); [16]): 5
- Corn plant response rating (corn (Zea mays); [17]): 5
- Plant response rating, Corn (corn (Zea mays); [18]): 5
- Plant response rating, Corn (corn (Zea mays); [19]): 5
- Plant response rating, Corn (corn (Zea mays); [20]): 5
- Plant response rating, Corn (corn (Zea mays); [21]): 10
- Corn plant response rating (corn (Zea mays); [22]): 10
- Corn plant response rating (corn (Zea mays); [23]): 5
- Plant response rating, Galium [8, 14]: 100
- Plant response rating, Galium [8, 15]: 100
- Plant response rating, Blackgrass [9, 14]: 60
- Plant response rating, Blackgrass [9, 15]: 60

SMILES: COC(=O)Oc1c(Br)nn(C)c(=O)c1-c1c(C)ccc2ccccc12 [Compound 137]
- Plant response rating, Ragweed [1, 10]: 100
- Plant response rating, Ragweed [1, 11]: 100
- Ragweed plant response rating [1, 12]: 90
- Plant response rating, Ragweed [1, 13]: 100
- Plant response rating, Pigweed [2, 10]: 100
- Plant response rating, Pigweed [2, 11]: 100
- Pigweed plant response rating [2, 12]: 100
- Plant response rating, Pigweed [2, 13]: 100
- Plant response rating, Foxtail, Giant [3, 10]: 100
- Plant response rating, Foxtail, Giant [3, 11]: 100
- Foxtail, Giant plant response rating [3, 12]: 90
- Plant response rating, Foxtail, Giant [3, 13]: 100
- Plant response rating, Kochia (kochia (Kochia scoparia); [10]): 100
- Plant response rating, Kochia (kochia (Kochia scoparia); [11]): 100
- Kochia plant response rating (kochia (Kochia scoparia); [12]): 30
- Plant response rating, Kochia (kochia (Kochia scoparia); [13]): 100
- Plant response rating, Barnyardgrass [4, 10]: 70
- Plant response rating, Barnyardgrass [4, 11]: 100
- Barnyardgrass plant response rating [4, 12]: 90
- Plant response rating, Barnyardgrass [4, 13]: 100
- Plant response rating, Wheat [5, 14]: 50
- Plant response rating, Wheat [5, 15]: 90
- Plant response rating, Ryegrass, Italian [6, 10]: 100
- Plant response rating, Ryegrass, Italian [6, 11]: 100
- Ryegrass, Italian plant response rating [6, 12]: 100
- Plant response rating, Ryegrass, Italian [6, 13]: 100
- Plant response rating, Ryegrass, Italian [7, 16]: 10
- Ryegrass, Italian plant response rating [7, 17]: 30
- Plant response rating, Ryegrass, Italian [7, 18]: 60
- Plant response rating, Ryegrass, Italian [7, 19]: 85
- Plant response rating, Ryegrass, Italian [7, 20]: 95
- Plant response rating, Ryegrass, Italian [7, 21]: 100
- Ryegrass, Italian plant response rating [7, 22]: 100
- Ryegrass, Italian plant response rating [7, 23]: 30
- Plant response rating, Corn (corn (Zea mays); [16]): 5
- Corn plant response rating (corn (Zea mays); [17]): 15
- Plant response rating, Corn (corn (Zea mays); [18]): 20
- Plant response rating, Corn (corn (Zea mays); [19]): 0
- Plant response rating, Corn (corn (Zea mays); [20]): 10
- Plant response rating, Corn (corn (Zea mays); [21]): 10
- Corn plant response rating (corn (Zea mays); [22]): 55
- Corn plant response rating (corn (Zea mays); [23]): 10
- Plant response rating, Galium [8, 14]: 100
- Plant response rating, Galium [8, 15]: 100
- Plant response rating, Blackgrass [9, 14]: 90
- Plant response rating, Blackgrass [9, 15]: 100

SMILES: COc1nn(C)c(=O)c(-c2c(C)ccc3ccccc23)c1OC(C)=O [Compound 138]
- Plant response rating, Ragweed [1, 10]: 100
- Plant response rating, Ragweed [1, 11]: 100
- Plant response rating, Ragweed [1, 13]: 100
- Plant response rating, Pigweed [2, 10]: 90
- Plant response rating, Pigweed [2, 11]: 100
- Pigweed plant response rating [2, 12]: 100
- Plant response rating, Pigweed [2, 13]: 100
- Plant response rating, Foxtail, Giant [3, 10]: 90
- Plant response rating, Foxtail, Giant [3, 11]: 100
- Foxtail, Giant plant response rating [3, 12]: 90
- Plant response rating, Foxtail, Giant [3, 13]: 100
- Plant response rating, Kochia (kochia (Kochia scoparia); [10]): 100
- Plant response rating, Kochia (kochia (Kochia scoparia); [11]): 100
- Kochia plant response rating (kochia (Kochia scoparia); [12]): 40
- Plant response rating, Kochia (kochia (Kochia scoparia); [13]): 100
- Plant response rating, Barnyardgrass [4, 10]: 20
- Plant response rating, Barnyardgrass [4, 11]: 100
- Barnyardgrass plant response rating [4, 12]: 10
- Plant response rating, Barnyardgrass [4, 13]: 100
- Plant response rating, Wheat [5, 14]: 0
- Plant response rating, Wheat [5, 15]: 20
- Plant response rating, Ryegrass, Italian [6, 10]: 90
- Plant response rating, Ryegrass, Italian [6, 11]: 100
- Plant response rating, Ryegrass, Italian [6, 13]: 100
- Plant response rating, Ryegrass, Italian [7, 16]: 5
- Ryegrass, Italian plant response rating [7, 17]: 5
- Plant response rating, Ryegrass, Italian [7, 18]: 70
- Plant response rating, Ryegrass, Italian [7, 19]: 55
- Plant response rating, Ryegrass, Italian [7, 20]: 90
- Plant response rating, Ryegrass, Italian [7, 21]: 90
- Ryegrass, Italian plant response rating [7, 22]: 95
- Ryegrass, Italian plant response rating [7, 23]: 10
- Plant response rating, Corn (corn (Zea mays); [16]): 0
- Corn plant response rating (corn (Zea mays); [17]): 0
- Plant response rating, Corn (corn (Zea mays); [18]): 15
- Plant response rating, Corn (corn (Zea mays); [19]): 5
- Plant response rating, Corn (corn (Zea mays); [20]): 5
- Plant response rating, Corn (corn (Zea mays); [21]): 5
- Corn plant response rating (corn (Zea mays); [22]): 15
- Corn plant response rating (corn (Zea mays); [23]): 15
- Plant response rating, Galium [8, 14]: 100
- Plant response rating, Galium [8, 15]: 100
- Plant response rating, Blackgrass [9, 14]: 80
- Plant response rating, Blackgrass [9, 15]: 90

SMILES: COC(=O)Oc1cnn(C)c(=O)c1-c1c(C)ccc2ccccc12 [Compound 143]
- Plant response rating, Ragweed [1, 10]: 70
- Plant response rating, Ragweed [1, 11]: 70
- Plant response rating, Ragweed [1, 13]: 90
- Plant response rating, Pigweed [2, 10]: 90
- Plant response rating, Pigweed [2, 11]: 90
- Pigweed plant response rating [2, 12]: 80
- Plant response rating, Pigweed [2, 13]: 100
- Plant response rating, Foxtail, Giant [3, 10]: 20
- Plant response rating, Foxtail, Giant [3, 11]: 60
- Foxtail, Giant plant response rating [3, 12]: 20
- Plant response rating, Foxtail, Giant [3, 13]: 70
- Plant response rating, Kochia (kochia (Kochia scoparia); [10]): 70
- Plant response rating, Kochia (kochia (Kochia scoparia); [11]): 90
- Kochia plant response rating (kochia (Kochia scoparia); [12]): 10
- Plant response rating, Kochia (kochia (Kochia scoparia); [13]): 70
- Plant response rating, Barnyardgrass [4, 10]: 20
- Plant response rating, Barnyardgrass [4, 11]: 60
- Barnyardgrass plant response rating [4, 12]: 20
- Plant response rating, Barnyardgrass [4, 13]: 80
- Plant response rating, Wheat [5, 14]: 0
- Plant response rating, Wheat [5, 15]: 50
- Plant response rating, Ryegrass, Italian [6, 10]: 80
- Plant response rating, Ryegrass, Italian [6, 11]: 100
- Plant response rating, Ryegrass, Italian [6, 13]: 100
- Plant response rating, Ryegrass, Italian [7, 24]: 45
- Plant response rating, Ryegrass, Italian [7, 16]: 55
- Ryegrass, Italian plant response rating [7, 17]: 60
- Ryegrass, Italian plant response rating [7, 23]: 90
- Plant response rating, Corn (corn (Zea mays); [24]): 0
- Plant response rating, Corn (corn (Zea mays); [16]): 5
- Corn plant response rating (corn (Zea mays); [17]): 0
- Corn plant response rating (corn (Zea mays); [23]): 5
- Plant response rating, Galium [8, 14]: 90
- Plant response rating, Galium [8, 15]: 100
- Plant response rating, Blackgrass [9, 14]: 40
- Plant response rating, Blackgrass [9, 15]: 60
